Laboratory results published in patent publication US10001483B2, “Methods for the treatment of Kaposi's sarcoma or KSHV-induced lymphoma using immunomodulatory compounds, and uses of biomarkers” (Celgene Corporation, priority 2015, dated 2018).

Legend:
[1] = system: KSHV-infected PEL lines (BC-3, BCBL-1, JSC-1, BC-1); experiment: Cell viability (Trypan Blue or CellTiter-Glo) in KSHV-infected PEL cell lines; type: cell-based; conditions: among thalidomide, lenalidomide, pomalidomide, FIGS. 2A-2D
Description: (§1) In addition, the effect of the immunomodulatory drugs on KSHV down-regulation of MHC-1 during lytic activation was investigated by FACS analysis after pretreating the cells with Immunomodulatory drugs prior to lytic activation with butyrate.
Cell Viability: Cells were plated in triplicate at a density of 30,000-60,000 cells per well in 96-well plates. Cell lines were kept separate on different plates. Cell viability after indicated treatments were assayed by Trypan Blue or by adding the CellTiter-Glo reagent to measure the total ATP in cells cultured with serum-supplemented medium. For the latter, the corresponding luminescence values, correlated to the number of cells, were measured using a luminometer. The values for percentage of living cells were normalized to the control.
Cell Culture: The PEL lines JSC-1 (John Hopkins University, Baltimore, Md.), dually infected with Epstein-Barr virus (EBV) and HHV-8, and BC-3 (ATCC, Rockville, Md.) and BCBL-1(National Institute of Health AIDS Research and Reagent Program, Rockville, Md.), harboring KSHV only, and CA-46, an uninfected cancerous B-cell line, were grown in RPMI 1640 medium (Invitrogen, Carlsbad, Calif.) supplemented with 15% fetal-bovine serum (FBS) (Thermo Scientific, Rockford, Ill.) and Pen/Strep glutamine at 37° C. with 5% CO2.

MHC-1 = experiment: Butyrate induced (lytic KSHV activation) MHC-1 down-regulation in BCBL-1 cells, FACS and Western blot; type: cell-based; conditions: pretreatment 24 h before butyrate
Description: as §1
Flow Cytometry Analysis and Antibodies: For flow cytometry analysis of MHC-I expression, cells were plated at 400,000 cells/mL and pretreated with immunomodulatory agents as indicated. After twenty-four hours, cells were treated with butyrate at indicated amounts to induce lytic activation and down-regulation of MHC-I. After another twenty-four hours, cells were analyzed on FACS and extracts were prepared as indicated. For flow cytometry analysis, the cells, 1×105 per sample, were incubated with indicated conjugated monoclonal antibodies for 30 min at 4° C. After washing twice with PBS, cells were resuspended in PBS and flow cytometry analysis was performed with a FACSCalibur. FITC-conjugated antibodies to anti-HLA MHC Class I (Sigma-Aldrich) and PE-conjugated antibodies to anti-DR MHC Class II (BioLegend) were used for flow cytometry.

[2] = patients; approved dose 4 mg; cited from earlier work

**Q.** What does the source list for Nc1cccc2c1C(=O)N(C1CCC(=O)NC1=O)C2=O (stereo not shown) [pomalidomide, 4-amino-2-(2,6-dioxopiperidin-3-yl)isoindoline-1,3-dione]?
**A.** cell viability / PEL proliferation [1]: most effective one at killing KSHV infected cells; down-regulation of MHC Class I expression upon lytic KSHV activation (MHC-1; FIGS. 7A-7C and FIG. 8): inhibits MHC-1 down-regulation; down-regulation of MHC Class I expression upon lytic KSHV activation (MHC-1; FIGS. 7A-7C and FIG. 8, listed as Pomalidomide): substantially more effective at preventing the down-regulation; Plasma Serum Concentration [2]: 300 nM
